Values of other authors as cited in article PMC11887077 (BMC Cancer, 2025).

System: NRP1
Conditions: in vitro

CLKADK [CK2]
affinity with NRP1 compared with CK3: higher affinity
